The text below walks through data of PubChem BioAssay (NCI).

Test in all cases: DTP human tumour cell line panel, 48 h
Experiment [1] has as its system LXFL 529 NSCLC.
The test system of experiment [2] is DMS 114 small cell lung.
For experiment [3], the system named is HOP-18 NSCLC.
Experiment [4] deals with SN12K1 renal.
In experiment [5] the test system is XF 498 CNS.

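96-well plates; 48 h exposure; 5 concentrations. Endpoints by linear interpolation between flanking doses. Not reached: highest tested concentration assigned. Here, GI50 denotes the concentration required for 50% inhibition of growth. Definition used: TGI = concentration required for complete inhibition of growth.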 Bounds are passed on as bounds.

Take `N.N.N.N.O=S(=O)([O-])[O-].[Co+3].[OH3+].[OH3+]`: in experiment [1], the GI50 is above 100 µM and the TGI is above 100 µM.
In the case of `CCOC(=O)c1cc(Cl)ccc1OC(N)=O`, the concentration for total growth inhibition (TGI) in experiment [2], in experiment [3], in experiment [4] and in experiment [5] was above 100 µM each time.
